Measured values from patent US11691949B2, “Quinoline sulfonamide compounds and their use as antibacterial agents” (OTAGO INNOVATION LIMITED, priority 2017, dated 2023).
In brackets after ≈: the same amount, converted by molar mass. Read-outs that look alike come from different tables or passages of the source.

How the values were obtained:
Format in all cases: cell-based
[1] = system: S. uberis ATCC 19436; experiment: MIC by broth microdilution, S. uberis; details: Streptococcus uberis
Summary of the method: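 Streptococcus uberis ATCC 19436 was tested in Todd Hewitt Broth by broth microdilution in 96-well flat bottom plates, in biological triplicate. Overnight cells were diluted to OD600 of approximately 0.025, giving about 5×10^5 cfu/mL in the wells. Compounds were serially diluted two-fold to 200 μl, incubated 24 h at 37° C. and 200 rpm, and the MIC was taken from OD600.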

[2] = system: S. aureus ATCC 6538; experiment: MIC by broth microdilution, S. aureus; details: Staphylococcus aureus
Summary of the method: (§1)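 Overnight cultures diluted to ~5×10^5 cfu/mL final; S. aureus in TSB and CAMHB, E. coli in LB and CAMHB, zinc sulphate to 50 μM final as required; two-fold serial dilutions. MIC = lowest concentration with no growth by OD600 after 24 h, 37° C, 200 rpm. MBC by Miles-Misra drop-plate viability count.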

[3] = system: E. coli ATCC 10596; experiment: MIC by broth microdilution, E. coli; details: Escherichia coli
Summary of the method: as §1

[4] = system: S. uberis ATCC 19436; experiment: MBC by Miles-Misra drop-plate method, S. uberis; details: Streptococcus uberis
Procedure: (§2) Antibacterial susceptibility testing was performed in triplicate (biological) by measuring minimum inhibitory concentrations (MICs) by broth microdilution in 96-well flat bottom microtiter plates (ThermoFisher Scientific, New Zealand). S. uberis ATCC 19436, S. aureus ATCC 6538, or E. coli ATCC 10596 cells grown overnight were diluted to an OD600 of approximately 0.025, so that the final concentration of cells in the MIC assay was approximately 5×10^5 cfu/mL in media as follows: S. uberis; Todd Hewitt Broth (THB), S. aureus; Tryptic Soy Broth (TSB) and Cation Adjusted Muller Hinton Broth (CAMHB), and E. coli; Lysogeny Borth (LB) and CAMHB, before being dispensed into microtiter wells. As required additional sterile Zinc Sulphate (Heptahydrate) was supplemented into the media, so the final concentration was 50 μM. Test compounds were added to starting wells and two-fold serial dilutions were undertaken to generate a range of inhibitor concentrations at a final volume of 200 μl. Media and test compound-free (untreated) controls were included in each microtiter plate in triplicate. After 24 h incubation at 37° C. and 200 rpm, the OD600 of wells were read using a Varioskan Flash plate reader (ThermoFisher Scientific, New Zealand). The MIC was reported as the lowest concentration of the test compound for which no growth occurred, as determined by OD600 readings. The minimum bactericidal concentration (MBC) was determined using the Miles-Misra drop-plate method to measure the viability of cells in response to test compound challenge.

[5] = system: S. aureus ATCC 6538; experiment: MBC by Miles-Misra drop-plate method, S. aureus; details: Staphylococcus aureus
Procedure: as §2

[6] = system: E. coli ATCC 10536; experiment: MBC by Miles-Misra drop-plate method, E. coli; details: Escherichia coli
Procedure: as §2

[7] = ATCC19436, No Zinc, read-out: S. uberis ATCC 19436 MIC
[8] = ATCC19436, Zinc (50 μM), read-out: S. uberis ATCC 19436 MIC
[9] = ATCC6538, No Zinc, read-out: S. aureus ATCC 6538 MIC
[10] = ATCC6538, Zinc (50 μM), read-out: S. aureus ATCC 6538 MIC
[11] = ATCC 10536 / ATCC 10596, No Zinc, read-out: E. coli ATCC 10536 MIC
[12] = ATCC 10536 / ATCC 10596, Zinc (50 μM), read-out: E. coli ATCC 10536 MIC
[13] = ATCC19436, No Zinc, read-out: S. uberis ATCC 19436 MBC
[14] = ATCC19436, Zinc (50 μM), read-out: S. uberis ATCC 19436 MBC
[15] = ATCC6538, No Zinc, read-out: S. aureus ATCC 6538 MBC
[16] = ATCC6538, Zinc (50 μM), read-out: S. aureus ATCC 6538 MBC
[17] = ATCC10536, No Zinc, read-out: E. coli ATCC 10536 MBC
[18] = ATCC10536, Zinc (50 μM), read-out: E. coli ATCC 10536 MBC
[19] = ATCC19436, read-out: S. uberis ATCC 19436 MIC, No Zinc
[20] = ATCC19436, read-out: S. uberis ATCC 19436 MIC, Zinc (50 μM)
[21] = ATCC6538, read-out: S. aureus ATCC 6538 MIC, No Zinc
[22] = ATCC6538, read-out: S. aureus ATCC 6538 MIC, Zinc (50 μM)
[23] = ATCC 10536 / ATCC 10596, read-out: E. coli ATCC 10536 MIC, No Zinc
[24] = ATCC 10536 / ATCC 10596, read-out: E. coli ATCC 10536 MIC, Zinc (50 μM)
[25] = ATCC19436, read-out: S. uberis ATCC 19436 MBC, No Zinc
[26] = ATCC19436, read-out: S. uberis ATCC 19436 MBC, Zinc (50 μM)
[27] = ATCC6538, read-out: S. aureus ATCC 6538 MBC, No Zinc
[28] = ATCC6538, read-out: S. aureus ATCC 6538 MBC, Zinc (50 μM)
[29] = ATCC10536, read-out: E. coli ATCC 10536 MBC, No Zinc
[30] = ATCC10536, read-out: E. coli ATCC 10536 MBC, Zinc (50 μM)

MIC [1, 7]	MIC [1, 8]	MIC [2, 9]	MIC [2, 10]	MIC [3, 11]	MIC [3, 12]	SMILES	MBC [4, 13]	MBC [4, 14]	MBC [5, 15]	MBC [5, 16]	MBC [6, 17]	MBC [6, 18]	MIC [1, 19]	MIC [1, 20]	MIC [2, 21]	MIC [2, 22]	MIC [3, 23]	MIC [3, 24]	MBC [4, 25]	MBC [4, 26]	other results
64 µg/mL (≈ 129 µM)	1 µg/mL (≈ 2.02 µM)	16 µg/mL (≈ 32.4 µM)	32 µg/mL (≈ 64.7 µM)	> 256 µg/mL	> 256 µg/mL	O=S(=O)(Nc1cccc2ccc(CNCCN3CCOCC3)nc12)c1ccc(C(F)(F)F)cc1 [ZDR112, N-(2-(((2-Morpholinoethyl)amino)methyl)quinolin-8-yl)-4-(trifluoromethyl)benzenesulfonamide]	64 µg/mL (≈ 129 µM)	2 µg/mL (≈ 4.04 µM)	> 256 µg/mL	256 µg/mL (≈ 518 µM)	128 µg/mL (≈ 259 µM)	> 256 µg/mL									
32 µg/mL (≈ 62.9 µM)	2 µg/mL (≈ 3.93 µM)	64 µg/mL (≈ 126 µM)	64 µg/mL (≈ 126 µM)	> 256 µg/mL	> 256 µg/mL	O=S(=O)(Nc1cccc2ccc(CNCCCN3CCOCC3)nc12)c1ccc(C(F)(F)F)cc1 [ZDR116, N-(2-(((3-Morpholinopropyl)amino)methyl)quinolin-8-yl)-4-(trifluoromethyl)benzenesulfonamide]	64 µg/mL (≈ 126 µM)	2 µg/mL (≈ 3.93 µM)	128 µg/mL (≈ 252 µM)	> 256 µg/mL	> 256 µg/mL	> 256 µg/mL									

Further lines, the compound ahead of its results:

SMILES	MIC [1, 7]	MIC [1, 8]	MIC [2, 9]	MIC [2, 10]	MIC [3, 11]	MIC [3, 12]	MBC [4, 13]	MBC [4, 14]	MBC [5, 15]	MBC [5, 16]	MBC [6, 17]	MBC [6, 18]	MIC [1, 19]	MIC [1, 20]	MIC [2, 21]	MIC [2, 22]	MIC [3, 23]	MIC [3, 24]	MBC [4, 25]	MBC [4, 26]	other results
O=S(=O)(Nc1cccc2ccc(CNCCN3CCCCC3)nc12)c1ccc(C(F)(F)F)cc1 [ZDR111, N-(2-(((2-(Piperidin-1-yl)ethyl)amino)methyl)quinolin-8-yl)-4-(trifluoromethyl)benzenesulfonamide]	8 µg/mL (≈ 16.2 µM)	0.5 µg/mL (≈ 1.02 µM)	16 µg/mL (≈ 32.5 µM)	16 µg/mL (≈ 32.5 µM)	64 µg/mL (≈ 130 µM)	> 256 µg/mL	8 µg/mL (≈ 16.2 µM)	1 µg/mL (≈ 2.03 µM)	16 µg/mL (≈ 32.5 µM)	16 µg/mL (≈ 32.5 µM)	> 256 µg/mL	> 256 µg/mL									
CN1CCN(CCNCc2ccc3cccc(NS(=O)(=O)c4ccc(C(F)(F)F)cc4)c3n2)CC1 [ZDR114, N-(2-(((2-(4-Methylpiperazin-1-yl)ethyl)amino)methyl)quinolin-8-yl)-4-(trifluoromethyl)benzenesulfonamide di-trifluoroacetate]													32 µg/mL (≈ 63 µM)	4 µg/mL (≈ 7.88 µM)	64 µg/mL (≈ 126 µM)	64 µg/mL (≈ 126 µM)	64 µg/mL (≈ 126 µM)	64 µg/mL (≈ 126 µM)	32 µg/mL (≈ 63 µM)	4 µg/mL (≈ 7.88 µM)	MBC [5, 27]: 128 µg/mL (≈ 252 µM); MBC [5, 28]: 64 µg/mL (≈ 126 µM); MBC [6, 29]: > 256 µg/mL; MBC [6, 30]: 64 µg/mL (≈ 126 µM)
O=S(=O)(Nc1cccc2ccc(CNCCCN3CCCCC3)nc12)c1ccc(C(F)(F)F)cc1 [ZDR115, N-(2-(((3-(Piperidin-1-yl)propyl)amino)methyl)quinolin-8-yl)-4-(trifluoromethyl)benzenesulfonamide di-trifluoroacetate]													4 µg/mL (≈ 7.9 µM)	2 µg/mL (≈ 3.95 µM)	16 µg/mL (≈ 31.6 µM)	16 µg/mL (≈ 31.6 µM)	16 µg/mL (≈ 31.6 µM)	16 µg/mL (≈ 31.6 µM)	8 µg/mL (≈ 15.8 µM)	4 µg/mL (≈ 7.9 µM)	MBC [5, 27]: 16 µg/mL (≈ 31.6 µM); MBC [5, 28]: 16 µg/mL (≈ 31.6 µM); MBC [6, 29]: 16 µg/mL (≈ 31.6 µM); MBC [6, 30]: 16 µg/mL (≈ 31.6 µM)
